{"source": "paper PMC7024391", "about": "“Trypanocidal Activity of Flavanone Derivatives” (Molecules, 2020)", "key": {"[1]": {"system": "Trypanosoma cruzi (amastigotes and trypomastigotes), Tulahuen strain", "assay": "Anti-Trypanosoma cruzi activity assay (amastigotes and trypomastigotes) in infected L929 cells, beta-galactosidase reporter", "format": "cell-based", "conditions": "Trypanosoma cruzi, 96 h incubation, ± 0.2, read-out: Trypanocide IC50(μM) ± 0.2", "experimental": "Flavanone derivatives were evaluated for anti-T. cruzi activity against the intracellular forms of the parasite. Although the use of epimastigotes present in the midgut vector may be utilized for initial screening, we have instead opted for the simultaneous use of trypomastigote and intracellular amastigotes forms that are present during both acute and chronic phases of the disease. This approach is in accordance with the Drugs for Neglected Diseases Initiative guidelines (DNDi). Moreover, it also has the advantage of evaluating bioactive compounds in infected cells while at the same time monitoring their effects on both the relevant forms of the parasite in the same system. Benznidazole was used as a positive control against T. cruzi and cytotoxicity was determined in mammalian L929 cells (Table 1). The bioavailability profile of the flavanones was evaluated by applying the Lipinski rule and data related to the risk of toxicity (mutagenicity, tumorigenicity, irritability, and effects on the reproductive system) carried out through online programs “Molinspiration” and “OSIRIS property explorer” (Table 1). […] Nevertheless, this preliminary result motivated us to investigate other analogs bearing substituents in order to improve potency and selectivity. […] Moreover, the selectivity of 2d was almost 4 times greater than 2a. The importance of methoxy substituents for trypanocidal activity has been noted in other studies. […] These compounds resembled more closely the chemical structure of the trypanocidal natural product (brevifolin carboxylate) that these structures were based on. Some enhancement in the trypanocidal activity of hybrid coumarin-chalcone compounds was also noted when the methoxy groups were introduced into either the 2 or 5 positions of the benzene ring. The inclusion of a pyridine moiety in compound 2e was supported by previous reports describing the anti-T. cruzi activity of 2-pyridyl derivatives and their capacity to inhibit cruzain catalytic activity. […] No improvements in anti-T. cruzi activity were also observed for flavanones substituted at the benzoyl moiety (2g–2o and 2v–2x). […] The physicochemical drug descriptors of the molecular properties for the synthesized compounds were calculated by Molinspiration software (Table 1). The majority of the tested compounds satisfy the Lipinski rule with no violations and therefore displaying potentially good bioavailability. There were no linear correlations observed between molecular hydrophobicity and bioactivity.\nThe in vitro anti-T. cruzi activity was evaluated on L929 cells (mouse fibroblasts) infected with Tulahuen strain of the parasite expressing the Escherichia coli β-galactosidase as reporter gene. Briefly, for the bioassay, 4000 L929 cells were added to each well of a 96-well microtiter plate. After an overnight incubation, 40,000 trypomastigotes were added to the cells and incubated for 2 h. Then, the medium containing extracellular parasites were replaced with 200 μL of fresh medium and the plate was incubated for an additional 48 h to establish the infection. For IC50 determination, the cells were exposed to each synthesized compound at serial decreasing dilutions and the plate was incubated for 96 h. After this period, 50 μL of 500 μM chlorophenol red beta-D-galactopyranoside (CPRG) in 0.5% Nonidet P40 was added to each well, and the plate was incubated for 16–20 h, after which the absorbance at 570 nm was measured. Controls with uninfected cells, untreated infected cells, infected cells treated with Benznidazole at 3.8 μM (positive control) or DMSO 1% were used. The results were expressed as the percentage of T. cruzi growth inhibition in compound-tested cells as compared to the infected cells and untreated cells. The IC50 values were calculated by linear interpolation. Quadruplicates were run in the same plate, and the experiments were repeated at least once."}, "[2]": {"assay": "In vitro cytotoxic test on uninfected L-929 cells (alamarBlue)", "format": "cell-based, mouse", "conditions": "mouse, uninfected L-929 cells; mammalian L929 cells, 96 h, alamarBlue; ± 2.0; read-out: Cytotoxicity CC50(μM) ± 2.0", "experimental": "(§1) The active compounds were tested in vitro for determination of cellular toxicity against uninfected L-929 cells using the alamarBlue® dye. The cells were exposed to compounds at increasing concentrations starting at IC50 value for T. cruzi. After 96 h of incubation with the tested compounds, the alamarBlue® was added and the absorbance at 570 and 600 nm measured after 4–6 h. The cell viability was expressed as the percentage of difference in the reduction between treated and untreated cells. IC50 values were calculated by linear interpolation, and the selectivity index (SI) was determined based on the ratio of the IC50 value in the host cell divided by the IC50 value of the parasite. Quadruplicates were run in the same plate, and the experiments were repeated at least once."}, "L929 cells": {"system": "L929 cells", "assay": "In vitro cytotoxic test on uninfected L-929 cells (alamarBlue)", "format": "cell-based, mouse", "conditions": "CC50 L929 / IC50 T. cruzi", "experimental": "as §1"}, "[3]": {"system": "trypomastigote form of T. cruzi", "set-up": "method as in Ambrozin et al.", "conditions": "ref Ambrozin et al.; cited from earlier work"}, "[4]": {"system": "T. cruzi (Trypomastigote)", "set-up": "method as in Grecco et al. [9],[10],[11],[12]", "conditions": "ref Grecco et al. [9],[10],[11],[12]; cited from earlier work"}, "[5]": {"system": "T. cruzi (Trypomastigote)", "set-up": "method as in Ganapaty et al. [8]", "conditions": "ref Ganapaty et al. [8]; cited from earlier work"}}, "note": "Read-outs that look alike come from different tables or passages of the source."}
{"smiles": "O=C(c1ccccc1)[C@@H]1C(=O)c2ccccc2O[C@H]1c1ccco1", "note": "(relative stereo) [Compound 2y, trans-3-benzoyl-2-(furan-2-yl)chroman-4-one]", "values": [{"measurement": "IC50", "setting": "[1]", "value": 114, "unit": "µM"}, {"measurement": "CC50 at 96 h", "setting": "[2]", "value": 503, "unit": "µM"}, {"measurement": "SI (selectivity index calculated from CC50/IC50)", "setting": "L929 cells", "value": 4.4}]}
{"smiles": "O=C(c1ccccc1)[C@@H]1C(=O)c2ccccc2O[C@H]1c1ccc([N+](=O)[O-])o1", "note": "(relative stereo) [Compound 2z, trans-3-benzoyl-2-(5-nitrofuran-2-yl)chroman-4-one]", "values": [{"measurement": "IC50", "setting": "[1]", "value": 2.6, "unit": "µM"}, {"measurement": "CC50 at 96 h", "setting": "[2]", "value": 27.5, "unit": "µM"}, {"measurement": "SI (selectivity index calculated from CC50/IC50)", "setting": "L929 cells", "value": 10.6}]}
{"smiles": "COc1ccc2c(=O)cc(-c3ccccc3)oc2c1", "note": "[7-Methoxyflavone]", "values": [{"measurement": "IC50", "setting": "[3]", "value": 3120, "unit": "µM"}]}
{"smiles": "CCC1(C(=O)c2ccccc2)C(=O)c2ccccc2OC1c1ccccc1", "note": "(stereo not drawn) [Compound 4, 3-Benzoyl-3-ethyl-2-phenylchroman-4-one]", "values": [{"measurement": "IC50", "setting": "[1]", "value": 13.2, "unit": "µM"}, {"measurement": "CC50 at 96 h", "setting": "[2]", "value": 449, "unit": "µM"}, {"measurement": "SI (selectivity index calculated from CC50/IC50)", "setting": "L929 cells", "value": 34.03}]}
{"smiles": "c1ccc(-c2n[nH]c3c2C(c2ccccc2)Oc2ccccc2-3)cc1", "note": "(stereo not drawn) [Compound 5, 3,4-diphenyl-1,4-dihydrochromeno[4,3-c]pyrazole]", "values": [{"measurement": "IC50", "setting": "[1]", "value": 8.3, "unit": "µM"}, {"measurement": "CC50 at 96 h", "setting": "[2]", "value": 38.6, "unit": "µM"}, {"measurement": "SI (selectivity index calculated from CC50/IC50)", "setting": "L929 cells", "value": 4.6}]}
{"smiles": "O=c1cc(-c2ccccc2)oc2ccccc12", "note": "[Flavone]", "values": [{"measurement": "IC50", "setting": "[3]", "value": 9520, "unit": "µM"}]}
{"smiles": "COc1c(O)cc2oc(-c3ccc(O)cc3)cc(=O)c2c1O", "note": "[Hispidulin]", "values": [{"measurement": "IC50", "setting": "[4]", "value": 268, "unit": "µM"}]}
{"smiles": "COc1ccc(-c2cc(=O)c3c(O)c(OC)c(O)cc3o2)cc1", "note": "[Pectolinaringenin]", "values": [{"measurement": "IC50", "setting": "[4]", "value": 164, "unit": "µM"}]}
{"smiles": "COc1cc2c(cc1O)OC[C@H](c1cc3c(cc1O)OCO3)[C@H]2O", "note": "[Pumilanol]", "values": [{"measurement": "IC50", "setting": "[5]", "value": 10.1, "unit": "µM"}]}
{"smiles": "COc1cc(O)c2c(c1)O[C@H](c1ccc(O)cc1)CC2=O", "note": "[Sakuranetin]", "values": [{"measurement": "IC50", "setting": "[4]", "value": 70.5, "unit": "µM"}]}
